According to ChEMBL document CHEMBL5154644, “Design, Synthesis, and Structure-Activity Relationship Optimization of Pyrazolopyrimidine Amide Inhibitors of Phosphoinositide 3-Kinase γ (PI3Kγ)” (J Med Chem, 2022):

Experiments:
[1] = Hepatic clearance in Sprague-Dawley rat by LC-MS/MS analysis; format: ADME; settings: in vivo
[2] = molecular target: T1, Phosphatidylinositol 4,5-bisphosphate 3-kinase catalytic subunit gamma isoform (Homo sapiens, UniProt P48736); assay: Inhibition of PI3Kgamma (unknown origin) in […] stimulated human THP-1 cells assessed as reduction in Akt phosphorylation level at Ser473 residue preincubated for 60 mins followed by rhMCP-1 stimulation and measured after 2 mins by AlphaLisa assay; format: cell-based
T1 sequence (P48736 whole entry, canonical isoform): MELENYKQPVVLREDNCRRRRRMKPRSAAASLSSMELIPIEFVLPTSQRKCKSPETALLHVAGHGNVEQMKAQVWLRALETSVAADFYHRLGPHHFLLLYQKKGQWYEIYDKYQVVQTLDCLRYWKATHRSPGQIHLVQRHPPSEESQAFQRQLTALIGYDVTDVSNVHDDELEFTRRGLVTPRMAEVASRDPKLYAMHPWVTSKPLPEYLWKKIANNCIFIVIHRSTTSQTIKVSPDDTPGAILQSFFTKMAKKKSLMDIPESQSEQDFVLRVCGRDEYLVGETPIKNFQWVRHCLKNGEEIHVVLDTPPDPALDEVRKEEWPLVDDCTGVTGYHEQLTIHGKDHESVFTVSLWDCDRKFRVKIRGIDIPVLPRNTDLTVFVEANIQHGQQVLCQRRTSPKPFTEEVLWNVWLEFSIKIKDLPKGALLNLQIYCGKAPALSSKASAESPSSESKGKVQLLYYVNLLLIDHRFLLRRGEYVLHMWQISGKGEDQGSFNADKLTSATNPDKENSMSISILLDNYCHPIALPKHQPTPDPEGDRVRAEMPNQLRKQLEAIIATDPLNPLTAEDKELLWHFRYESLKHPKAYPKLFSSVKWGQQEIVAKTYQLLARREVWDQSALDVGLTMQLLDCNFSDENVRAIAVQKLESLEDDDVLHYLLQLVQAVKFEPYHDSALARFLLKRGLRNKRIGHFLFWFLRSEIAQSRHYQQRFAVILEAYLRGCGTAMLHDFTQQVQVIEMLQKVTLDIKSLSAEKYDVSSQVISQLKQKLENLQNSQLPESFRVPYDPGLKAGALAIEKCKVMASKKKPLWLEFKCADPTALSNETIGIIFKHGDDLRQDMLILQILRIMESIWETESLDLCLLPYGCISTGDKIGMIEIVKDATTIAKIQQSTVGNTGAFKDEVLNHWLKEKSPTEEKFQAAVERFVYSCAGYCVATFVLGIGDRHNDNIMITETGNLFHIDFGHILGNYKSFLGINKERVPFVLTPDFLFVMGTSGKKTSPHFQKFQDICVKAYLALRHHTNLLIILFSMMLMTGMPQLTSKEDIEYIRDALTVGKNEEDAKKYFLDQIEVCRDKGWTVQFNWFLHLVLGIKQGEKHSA

[3] = molecular target: T1, Phosphatidylinositol 4,5-bisphosphate 3-kinase catalytic subunit gamma isoform; assay: Inhibition of PI3Kgamma (unknown origin) using PIP2 as substrate preincubated for 1 hr followed by substrate addition and measured after 60 mins in presence of ATP by ADP-glo assay
[4] = Metabolic stability in human hepatocytes assessed as intrinsic clearance per 10^6 cells at 0.5 uM by LC-MS/MS analysis; format: ADME, cell-based, Hepatocyte; settings: read-out: CLH
[5] = Metabolic stability in rat hepatocyte assessed as intrinsic clearance per 10^8 cells at 0.5 uM by LC-MS/MS analysis; format: ADME, cell-based; settings: hepatocytes
[6] = molecular target: Phosphatidylinositol 4,5-bisphosphate 3-kinase catalytic subunit alpha isoform (Homo sapiens, UniProt P42336); assay: Inhibition of PI3Kalpha (unknown origin) using PIP2 as substrate preincubated for 1 hr followed by substrate addition and measured after 60 mins in presence of ATP by ADP-glo assay
Phosphatidylinositol 4,5-bisphosphate 3-kinase catalytic subunit alpha isoform, sequence (P42336 whole entry, canonical isoform): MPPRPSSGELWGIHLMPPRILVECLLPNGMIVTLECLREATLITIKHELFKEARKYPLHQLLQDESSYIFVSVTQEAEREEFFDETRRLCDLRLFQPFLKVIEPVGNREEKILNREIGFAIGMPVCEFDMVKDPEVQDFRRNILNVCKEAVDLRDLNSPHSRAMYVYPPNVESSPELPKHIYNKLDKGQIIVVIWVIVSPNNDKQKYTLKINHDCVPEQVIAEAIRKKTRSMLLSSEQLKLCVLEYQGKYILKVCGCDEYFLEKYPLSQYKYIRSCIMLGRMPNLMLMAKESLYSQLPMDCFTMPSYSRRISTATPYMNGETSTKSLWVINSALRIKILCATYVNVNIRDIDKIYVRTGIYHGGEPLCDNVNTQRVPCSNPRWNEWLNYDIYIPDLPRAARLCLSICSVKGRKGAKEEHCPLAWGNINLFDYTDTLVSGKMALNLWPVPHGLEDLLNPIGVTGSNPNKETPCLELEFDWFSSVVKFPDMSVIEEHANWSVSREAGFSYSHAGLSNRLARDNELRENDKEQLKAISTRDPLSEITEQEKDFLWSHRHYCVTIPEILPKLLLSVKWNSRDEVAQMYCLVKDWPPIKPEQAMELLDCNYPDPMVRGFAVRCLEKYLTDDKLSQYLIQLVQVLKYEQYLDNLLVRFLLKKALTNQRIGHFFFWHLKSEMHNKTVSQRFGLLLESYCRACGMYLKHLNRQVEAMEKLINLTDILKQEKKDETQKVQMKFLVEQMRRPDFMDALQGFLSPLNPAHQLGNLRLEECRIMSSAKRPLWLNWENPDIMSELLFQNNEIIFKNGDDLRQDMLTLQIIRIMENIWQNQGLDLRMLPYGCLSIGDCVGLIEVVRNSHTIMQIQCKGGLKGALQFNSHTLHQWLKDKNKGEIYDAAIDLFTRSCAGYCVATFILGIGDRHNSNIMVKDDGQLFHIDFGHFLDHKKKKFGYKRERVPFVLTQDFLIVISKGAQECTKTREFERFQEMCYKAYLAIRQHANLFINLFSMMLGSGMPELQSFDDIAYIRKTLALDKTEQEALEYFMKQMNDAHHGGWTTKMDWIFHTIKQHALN

[7] = molecular target: T2, Phosphatidylinositol 4,5-bisphosphate 3-kinase catalytic subunit delta isoform (Homo sapiens, UniProt O00329); assay: Inhibition of PI3Kdelta (unknown origin) using PIP2 as substrate preincubated for 1 hr followed by substrate addition and measured after 60 mins in presence of ATP by ADP-glo assay
T2 sequence (O00329 whole entry): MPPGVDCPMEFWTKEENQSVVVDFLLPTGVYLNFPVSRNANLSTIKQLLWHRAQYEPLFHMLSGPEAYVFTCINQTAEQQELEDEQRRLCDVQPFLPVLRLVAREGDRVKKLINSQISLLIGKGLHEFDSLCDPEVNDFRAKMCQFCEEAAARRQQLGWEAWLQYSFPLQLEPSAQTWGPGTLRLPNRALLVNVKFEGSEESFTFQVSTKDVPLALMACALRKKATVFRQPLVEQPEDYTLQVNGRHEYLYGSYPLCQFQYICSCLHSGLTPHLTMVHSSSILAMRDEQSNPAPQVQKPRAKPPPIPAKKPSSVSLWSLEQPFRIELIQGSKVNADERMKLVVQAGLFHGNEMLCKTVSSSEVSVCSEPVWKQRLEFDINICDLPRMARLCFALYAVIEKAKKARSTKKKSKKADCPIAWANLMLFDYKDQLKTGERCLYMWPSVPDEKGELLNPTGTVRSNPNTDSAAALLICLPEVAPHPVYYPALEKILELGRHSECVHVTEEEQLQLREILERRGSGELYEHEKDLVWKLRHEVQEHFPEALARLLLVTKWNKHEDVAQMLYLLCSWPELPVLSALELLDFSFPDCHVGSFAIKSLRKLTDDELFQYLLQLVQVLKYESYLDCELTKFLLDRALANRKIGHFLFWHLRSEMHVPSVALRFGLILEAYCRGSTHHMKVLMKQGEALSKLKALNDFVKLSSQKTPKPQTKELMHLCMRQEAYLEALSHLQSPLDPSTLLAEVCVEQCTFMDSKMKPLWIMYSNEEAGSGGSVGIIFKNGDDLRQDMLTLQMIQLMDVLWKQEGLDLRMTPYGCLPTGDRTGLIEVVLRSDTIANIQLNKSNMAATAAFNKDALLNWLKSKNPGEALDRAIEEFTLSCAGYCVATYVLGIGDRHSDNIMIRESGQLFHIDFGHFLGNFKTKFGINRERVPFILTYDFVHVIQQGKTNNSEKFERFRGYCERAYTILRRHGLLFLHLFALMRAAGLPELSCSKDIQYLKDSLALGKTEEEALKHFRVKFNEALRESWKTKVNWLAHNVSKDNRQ

Homo sapiens [8] = species: Homo sapiens; assay: Selectivity ratio of IC50 for inhibition of PI3Kalpha (unknown origin) to IC50 for inhibition of PI3Kgamma (unknown origin)
Homo sapiens [9] = species: Homo sapiens; assay: Selectivity ratio of IC50 for inhibition of PI3Kdelta (unknown origin) to IC50 for inhibition of PI3Kgamma (unknown origin)
CYP3A4 = CYP3A4 (Homo sapiens, UniProt P08684); assay: in vitro; settings: human liver microsomes, probe midazolam
CYP3A4, sequence (P08684 whole entry): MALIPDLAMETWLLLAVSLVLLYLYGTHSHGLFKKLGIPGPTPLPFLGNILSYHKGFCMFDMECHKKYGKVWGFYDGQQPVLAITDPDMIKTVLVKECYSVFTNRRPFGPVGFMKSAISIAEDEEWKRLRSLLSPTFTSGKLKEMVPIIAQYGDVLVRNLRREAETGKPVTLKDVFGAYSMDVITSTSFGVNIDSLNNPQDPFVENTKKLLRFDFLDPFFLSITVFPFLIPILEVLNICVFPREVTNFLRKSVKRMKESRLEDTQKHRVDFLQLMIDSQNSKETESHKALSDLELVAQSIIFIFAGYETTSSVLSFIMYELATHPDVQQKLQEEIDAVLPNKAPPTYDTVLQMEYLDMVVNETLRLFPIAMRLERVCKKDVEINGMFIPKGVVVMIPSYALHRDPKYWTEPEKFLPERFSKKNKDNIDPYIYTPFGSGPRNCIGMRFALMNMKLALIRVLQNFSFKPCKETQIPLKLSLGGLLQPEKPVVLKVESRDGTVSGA
Description: Time dependent inhibition of CYP3A4 in human liver microsomes at 10 uM using midazolam as substrate preincubated for 30 mins in presence of NADPH by LC/MS/MS analysis relative to control

SMILES	CLH [1]	IC50 [2]	IC50 [3]	hepatocyte CLint at 0.5 µM [4]	hepatocyte intrinsic clearance [5]	IC50 [6]	IC50 [7]	Ratio IC50 (Homo sapiens [8])	Ratio IC50 (Homo sapiens [9])	inhibition at 30 min, 10 µM (CYP3A4)
Cc1cc(-c2ccn3nc(N)c(C(=O)N[C@H]4CCOC4)c3n2)cc2c1C(=O)N([C@@H](C)C1CC1)C2	130 mL/min/kg	148 nM	1.8 nM	9.35 µL/min/1e6 cells	13 µL/min	974 nM	598 nM	580	352	–
COc1cc(-c2ccn3nc(N)c(C(=O)NC4CC4)c3n2)cc2c1C(=O)N([C@@H](C)C1CC1)C2	–	121 nM	3.8 nM	1.81 µL/min/1e6 cells	2.07 µL/min	281 nM	459 nM	74	122	28%
Cc1cc(-c2ccn3nc(N)c(C(=O)NC4CC4)c3n2)cc2c1C(=O)N(CC1CC1)C2	–	258 nM	10.1 nM	–	–	431 nM	911 nM	42	84	–
C[C@@H](C1CC1)N1Cc2cc(-c3ccn4nc(N)c(C(=O)NC5CC5)c4n3)cc(S(=O)(=O)C3CCC3)c2C1=O	–	50 nM	3 nM	4.89 µL/min/1e6 cells	4.14 µL/min	512 nM	376 nM	–	124	35%
Cc1cc(-c2ccn3nc(N)c(C(=O)NC4CC4)c3n2)cc2c1C(=O)N([C@@H](C1CC1)C(F)(F)F)C2	–	795 nM	17.7 nM	–	–	> 10000 nM	> 10000 nM	> 566	> 566	–
CS(=O)(=O)Nc1cc(-c2ccn3nc(N)c(C(=O)NC4CC4)c3n2)cc2c1C(=O)N([C@@H](C1CC1)C(F)(F)F)C2	–	88 nM	1.7 nM	< 1.2 µL/min/1e6 cells	< 1.2 µL/min	5360 nM	4580 nM	–	2780	22%
C[C@@H](C1CC1)N1Cc2cc(-c3ccn4nc(N)c(C(=O)NC5CC5)c4n3)cc(Cl)c2C1=O	–	103 nM	2.4 nM	< 1.2 µL/min/1e6 cells	2.89 µL/min	686 nM	1430 nM	282	589	36%
CC(C)S(=O)(=O)c1cc(-c2ccn3nc(N)c(C(=O)NC4CC4)c3n2)cc2c1C(=O)N([C@@H](C)C1CC1)C2	28.3 mL/min/kg	–	–	2.43 µL/min/1e6 cells	< 1.2 µL/min	952 nM	714 nM	–	–	–
Cc1cc(-c2ccn3nc(N)c(C(=O)N[C@H]4CC[C@@](C)(O)CC4)c3n2)cc2c1C(=O)N([C@@H](C)C1CC1)C2	33 mL/min/kg	102 nM	4.8 nM	< 1.2 µL/min/1e6 cells	11.6 µL/min	> 10000 nM	> 10000 nM	> 2090	> 2090	–
Cc1cc(-c2ccn3nc(N)c(C(=O)N[C@H]4CC[C@H](C(=O)O)CC4)c3n2)cc2c1C(=O)N([C@@H](C)C1CC1)C2	–	397 nM	2.1 nM	–	–	29 nM	20 nM	13	9	–
CNS(=O)(=O)c1cc(-c2ccn3nc(N)c(C(=O)N[C@H]4CC[C@](C)(O)CC4)c3n2)cc2c1C(=O)N([C@@H](C)C(F)(F)F)C2	–	32 nM	0.9 nM	2.77 µL/min/1e6 cells	< 1.2 µL/min	49 nM	20 nM	53	22	–
Cc1cc(-c2ccn3nc(N)c(C(=O)N[C@H]4CC[C@](C)(O)CC4)c3n2)cc2c1C(=O)N([C@@H](C)C1CC1)C2	71.7 mL/min/kg	76 nM	3 nM	8.7 µL/min/1e6 cells	22.1 µL/min	240 nM	155 nM	82	53	–
Cc1cc(-c2ccn3ncc(-c4cnn(C)c4)c3n2)cc2c1C(=O)N([C@@H](C)C1CC1)C2	–	468 nM	–	27.2 µL/min/1e6 cells	10.3 µL/min	–	–	–	–	67%
Cc1cc(-c2ccn3nc(N)c(-c4cnn(C)c4)c3n2)cc2c1C(=O)N([C@@H](C)C1CC1)C2	21.7 mL/min/kg	–	–	–	–	–	–	–	–	–
C[C@H](N1Cc2cc(-c3ccn4nc(N)c(C(=O)NC5CC5)c4n3)cc(NS(C)(=O)=O)c2C1=O)C(F)(F)F	–	16 nM	0.8 nM	< 1.2 µL/min/1e6 cells	< 1.2 µL/min	97 nM	68 nM	–	89	14%
CC[C@H](N1Cc2cc(-c3ccn4nc(N)c(C(=O)NC5CC5)c4n3)cc(NS(C)(=O)=O)c2C1=O)C(F)(F)F	–	31 nM	3.3 nM	2.91 µL/min/1e6 cells	6.67 µL/min	2830 nM	1310 nM	–	403	62%
C[C@@H](C1CC1)N1Cc2cc(-c3ccn4nc(N)c(C(=O)NC5CC5)c4n3)cc(OC(F)F)c2C1=O	–	71 nM	1.8 nM	40.4 µL/min/1e6 cells	12.6 µL/min	602 nM	2120 nM	330	907	16%
CC(C)[C@H](N1Cc2cc(-c3ccn4nc(N)c(C(=O)NC5CC5)c4n3)cc(NS(C)(=O)=O)c2C1=O)C(F)(F)F	–	150 nM	8.5 nM	6.52 µL/min/1e6 cells	3.65 µL/min	3680 nM	2750 nM	–	323	55%
CC(C)c1cc(-c2ccn3nc(N)c(C(=O)NC4CC4)c3n2)cc2c1C(=O)N([C@@H](C)C1CC1)C2	–	54 nM	4.6 nM	< 1.2 µL/min/1e6 cells	2.41 µL/min	1010 nM	1480 nM	220	322	28%
CNS(=O)(=O)c1cc(-c2ccn3nc(N)c(C(=O)N[C@@H](CO)C4CC4)c3n2)cc2c1C(=O)N([C@@H](C)C(F)(F)F)C2	–	96 nM	1.3 nM	1.61 µL/min/1e6 cells	3.82 µL/min	363 nM	86 nM	274	65	–
Cc1cc(-c2ccn3nc(N)c(C(=O)N[C@H]4CC[C@H](N)CC4)c3n2)cc2c1C(=O)N([C@@H](C)C1CC1)C2	–	276 nM	2 nM	4.74 µL/min/1e6 cells	19.3 µL/min	> 10000 nM	4530 nM	> 4960	2250	–
CCN1Cc2cc(-c3ccn4nc(N)c(C(=O)NC5CC5)c4n3)cc(C)c2C1=O	–	338 nM	5.6 nM	–	–	118 nM	179 nM	21	32	–
C[C@@H](C1CC1)N1Cc2cc(-c3ccn4nc(N)c(C(=O)NC5CC5)c4n3)cc(C3CC3)c2C1=O	–	66 nM	4.7 nM	4.23 µL/min/1e6 cells	2.97 µL/min	572 nM	829 nM	122	178	38%
